Results as given in patent US9918968B2, “Rapamycin analogs targeting proteasome function in the treatment of cancer” (THE BOARD OF REGENTS OF THE UNIVERSITY OF TEXAS SYSTEM, priority 2013, dated 2018).

Assays:
RPMI 8226 myeloma cells = test: Live/dead cell count, RPMI 8226 myeloma cells; type: cell-based, human; details: 48 hrs
Method: (§1) Culture Collection; ATCC) were cultured according to ATCC specifications: HeLa.S3 cervical adenocarcinoma, MCF7 breast adenocarcinoma, MDA-MB-231 breast adenocarcinoma (representing triple negative breast cancer), and RPMI 8226 myeloma. The cells were grown in 24 or 12-well cell culture plates. When the cells reached about 60% confluency (surface-growing HeLa.S3,MCF7 and MDA-MB-231) or a density of about 7×10^5 (suspension-growing RPMI 8226), the inhibitors dissolved in DMSO or the solvent (DMSO) diluted in respective culture medium were added and the cells were further cultured for additional 48 hours. […] The final concentration of the solvent was 1% (vol/vol). The number of live and dead cells after the treatment was approximated with calcein AM and ethidium homodimer (LiveDead test, Invitrogen) according to manufacturer's protocol, or by a Trypan Blue exclusion assay. In short, the cells after the treatment were washed three times with PBS and overlaid (surface-growing) or mixed (suspension-growing) with 4 microM calcein AM and 2 microM ethidium homodimer in PBS. Fluorescence of calcein and DNA-bound ethidium homodimer was measured with Fluoroskan Ascent plate reader, at 485 nm (excitation)/538 nm (emission) and 530 nm/619 nm, respectively. The cell counts were approximated using standard curves of live and digitonin-killed cells prepared for each strain. Alternatively, after cell treatment the medium was removed, the surface growing cells were overlaid with Trypan Blue solution, and the colorless (live) and blue-colored (dead) cells were counted under the inverted microscope.

[1] = system: T1, 20S core with 19S, 11S, tRpt5 or tPA200; test: Activation of 20S core ChT-L activity by α face ligands (19S, 11S, tRpt5, tPA200); type: biochemical, human; details: 10 μM derivative
T1 construct: purchased Enzo LifeSciences (20S, 11S); Boston Biochemicals (19S complex)
Method: (§2) Human purified proteasome complexes were purchased from Enzo LifeSciences or Boston Biochemicals (19S complex). BODIPY-casein (Invitrogen/Molecular Probes) was used as a model protein substrate, with increasing fluorescence of BODIPY labeled peptide products of degradation monitored for up to 8 hours at 37° C. The peptidase activity of the enzyme was measured as arbitrary intensity units of the released fluorescent group 7-amino-4-methylcoumarin (AMC) from peptide substrates, as described. The common substrates specific for the three kinds of active sites: succinyl-LeuLeuValTyr-7-amido-4-methylcoumarin (Suc-LLVY-MCA; for the ChT-L activity; Bachem), butoxycarbonyl-LeuArgArg-MCA (BocLRR-MCA; for T-L; Bachem) and carbobenzoxy-LeuLeuGlu-MCA (CbzLLE-MCA; for PGPH; Enzo Life Sciences International, Inc.) were used at 100 μM final concentrations, unless stated otherwise (Gaczynska and Osmulski, 2005). Proteasome substrates, rapamycin, its derivatives, and competing peptides were stocked in DMSO and diluted 100-fold in the reaction mixtures. The Rpt5 and PA200 C-terminal peptides were synthesized in the Departmental Peptide Synthesis Core using the standard SPPS chemistry. To activate the latent 20S proteasome, 0.005% (final concentration) of sodium dodecyl sulfate (SDS) was used. The reactions were carried out in 96 well plates, with 2.3 nM proteasome and other components as indicated dissolved in 50 mM Tris-HCl buffer (pH 8.0) and incubated at 37° C. for up to 1 hour. The fluorescence of products was monitored every 2 minutes with a Fluoroskan Ascent plate reader. Reaction rates were calculated from smoothed linear segment of kinetic curves using OriginPro 8.6 (OriginLabs, Northampton, Mass.). For the determination of an inhibition type, at least six distinct substrate concentrations and two inhibitor concentrations were used. The kinetic parameters of inhibition were analyzed in terms of the Michaelis-Menten formalism using the enzyme kinetic module of SigmaPlot v.12 (Systat Software, Inc, San Jose, Calif.) to perform the respective calculations.
De novo assembly of 19S from subunits is a complex process assisted by chaperones. In vitro, and likely also in cells, the 26S can also be reconstructed from 20S and the already-assembled 19S particle in the presence of ATP (Smith et al., 2005). Enhancement of the peptidase activities of the core proteasome is an established test for efficiency of the in vitro reconstruction. […] In contrast, a pretreatment of 20S with 5 μM rapamycin before adding ATP and 19S totally abrogated the activation, leaving the proteasome almost 40% inhibited instead (FIG. 6).

[2] = molecular target: T2, human 20S proteasome, ChT-L peptidase; test: ChT-L peptidase activity of purified human 20S proteasome (Suc-LLVY-MCA); type: biochemical; details: latent human 20S proteasome
T2 construct: purchased Enzo LifeSciences
Method: as §2, with “The common substrates specific for the three kinds of active sites: succinyl-LeuLeuValTyr-7-amido-4-methylcoumarin (Suc-LLVY-MCA; for the ChT-L activity; Bachem), butoxycarbonyl-LeuArgArg-MCA (BocLRR-MCA; for T-L; Bachem) and carbobenzoxy-LeuLeuGlu-MCA (CbzLLE-MCA; for PGPH; Enzo Life Sciences International, Inc.) were used at 100 μM final concentrations, unless stated otherwise (Gaczynska and Osmulski, 2005).” left out, “The reactions were carried out in 96 well plates, with 2.3 nM proteasome and other components as indicated dissolved in 50 mM Tris-HCl buffer (pH 8.0) and incubated at 37° C. for up to 1 hour.” left out, “calculations. […]” for “calculations.”
The in vitro assay for testing the ChT-L peptidase activity of the purified human 20S proteasome was performed as described above.

[3] = system: HeLa.S3 cervical carcinoma cells; test: Live/dead cell count, HeLa.S3 cells; type: cell-based, human; details: up to 500 nM, 48 hrs
Method: as §1

[4] = system: T3, human 20S proteasome, PGPH peptidase; test: PGPH peptidase activity of purified human 20S proteasome (CbzLLE-MCA); type: biochemical
T3 construct: purchased Enzo LifeSciences
Method: as §2
IC50 values (a drug concentration causing 50% inhibition of the indicated enzymatic activity) were calculated for ChT-L and PGPH peptidases. Kd (dissociation constant) and Bmax (maximal activation effect achieved; in % above the control activity) values were calculated for the T-L peptidase. Mean±SD from n=2 or 3 experiments, or data from representative experiments set in duplicates or triplicates, are presented in the table. All three peptidase activities changed by no more than ±20%, without a concentration-dependent trend, upon treatment with up to 10 μM of rapamycin unrelated mTOR inhibitors PI-103 or NVP-BEZ235, in two independent experiments.

[5] = system: MCF7 breast carcinoma cells; test: Live/dead cell count, MCF7 cells; type: cell-based, human; details: seco-rapamycin alone, 48 hrs, 100% = total cell count in control
Method: as §1, with “In short, the cells after the treatment were washed three times with PBS and overlaid (surface-growing) or mixed (suspension-growing) with 4 microM calcein AM and 2 microM ethidium homodimer in PBS.” left out, “The cell counts were approximated using standard curves of live and digitonin-killed cells prepared for each strain.” left out

Compound: CO[C@@H](C[C@@H]1CC[C@@H](C)[C@](O)(C(=O)C(=O)N2CCCC[C@H]2C(=O)[O-])O1)/C(C)=C/C=C/C=C/[C@@H](C)C[C@@H](C)C(=O)[C@H](OC)[C@H](O)/C(C)=C/[C@@H](C)C(=O)/C=C/[C@H](C)C[C@@H]1CC[C@@H](O)[C@H](OC)C1.[Na+] [seco-rapamycin]
- drop in the live cell count (RPMI 8226 myeloma cells; 100 nM): 50%
- cells alive (RPMI 8226 myeloma cells; 200 nM): only one-third of the control cells alive
- lowering of activation by tRpt5 ([1]; 10 μM tRpt5): about 30%
- inhibition of proteasome with or without tPA200 ([1]; presence or absence of 10 μM tPA200): about 40%
- IC50 [2]: > 20 µM
- cytotoxicity [3]: did not reveal cytotoxicity
- inhibition of post-acidic (PGPH) cleavages ([4]; 5 μM): ~50%
- IC50 ([4]; latent human 20S proteasome): 6.45 ± 0.78 µM
- dead cells count [5]: about 60%
